Test results taken from PMC11884657, “Ru(II)-Fenamic-Based Complexes as Promising Human Ovarian Antitumor Agents: DNA Interaction, Cellular Uptake, and Three-Dimensional Spheroid Models” (Inorganic Chemistry, 2025).
Read-outs that look alike come from different tables or passages of the source.

What was measured:
[1] = system: MDA-MB-231 (breast) cancer cells; experiment: MTT cytotoxicity assay, MDA-MB-231; details: read-out: In Vitro Cytotoxicity IC50, MDA-MB-231
Description: (§1) The cell lines were grown in culture bottles and incubated at a CO2 concentration of 5% and 37 °C.
(§2) Cell viability was investigated via the MTT [3-(4,5-dimethylthiazol-2-yl)-2,5-diphenyltetrazolium bromide] assay. This method consists of the capacity of enzymes present in living cells, especially in mitochondria, to reduce MTT to formazan, a purple-colored compound. […] For the assays, 1.5 × 10^4 cells/well were seeded in 96-well flat-bottom cell culture plates (KASVI). The plates were incubated for 24 h; then, different concentrations of the complexes were pipetted, and the plates were treated for an additional 48 h. To complete the treatment, 50 μL of MTT (1 mg/mL in PBS) was added to each well, followed by incubation for 3 h. The formazan crystals that formed were solubilized in isopropanol, and the absorbance was read with a microplate reader (BioTek, Epoch) at 540 nm. Cell viability (IC50) was assessed with GraphPad Prism 8.

[2] = system: A2780cis (ovarian cisplatin-resistant) cancer cells; experiment: MTT cytotoxicity assay, A2780cis; details: read-out: In Vitro Cytotoxicity IC50, A2780cis
Description: as §1, §2

in vitro = details: human
Description: as §1, §2

A549 (lung) cancer cells = experiment: MTT cytotoxicity assay, A549; details: read-out: In Vitro Cytotoxicity IC50, A549
Description: as §1, §2

[3] = system: A2780 (ovarian) cancer cells; experiment: MTT cytotoxicity assay, A2780; details: read-out: In Vitro Cytotoxicity IC50, A2780
Description: as §1, §2

[4] = MTT cytotoxicity assay, MRC-5; details: human
Description: as §1, §2

[5] = system: MRC-5 (lung) normal cells; experiment: MTT cytotoxicity assay, MRC-5; details: read-out: In Vitro Cytotoxicity IC50, MRC-5; MTT, 48 h treatment
Description: as §1, §2

Stability by 31P{1H} NMR = details: 48 h
Description: Furthermore, the stability of the complexes was studied via ^31P{^1H} NMR in DMSO and a DMSO/DMEM (Dulbecco’s modified Eagle’s medium) solution over 48 h. […] In the same way, stability assays were performed for the precursor cis-[RuCl2(bipy)(dppp)].

A2780 cells = experiment: Cellular uptake of ruthenium by HR-CS GFAAS; format: cell-based, human; details: 1 μM complex, 4 h
Description: Due to the higher cytotoxicity of complexes 1 and 2 against the A2780 cell line, experiments were performed to evaluate their cell internalization capacity. These studies are crucial to determine whether the complexes can efficiently penetrate the cell membrane and to correlate their antiproliferative effects with their uptake levels.[59] A2780 cells were exposed to complexes 1 and 2 (1 μM) over a period of 4 h, and the cellular uptake of ruthenium was quantified using graphite furnace atomic absorption spectrometry.
A2780 cancer cells (2 × 10^6 cells/plate) were seeded in Petri dishes. After 24 h, complexes 1 and 2 (1 μM) were added to the cells for 4 h. Subsequently, the RPMI medium was removed, and the cells were washed with phosphate-buffered saline (PBS), trypsinized, and counted. The ruthenium absorbance measurements were conducted with an Analytik Jena ContrAA 700 graphite furnace atomic absorption spectrometer (Jena, Germany), equipped with solid sampling tubes. The absorbance measurements were performed at 349.8945 nm, with the peak volume selected absorbance (PVSA) corresponding to three pixels. The heating program for the graphite furnace, used for the quantitative determination of ruthenium, is depicted in Table S4.[66] The analytical working solution of 50 mg L^–1 Ru was prepared by diluting standard solutions of 1000 mg L^–1 Ru (Specsol, São Paulo, Brazil) and acidifying with 0.5% (v/v) HNO3. To establish the calibration curve, appropriate aliquots of the analytical working solution were added to the atomizer to achieve concentrations of 0.1, 0.3, 0.6, 0.9, 1.2, and 1.5 ng of ruthenium. The cell suspension containing the internalized complexes was diluted with 500 μL of deionized water, acidified with 0.5% (v/v) HNO3, and homogenized using a vortex mixer (IKA model V1). For the determination of Ru by SS HR-CS GFAAS, 10 μL aliquots of the samples were transferred to the platform and introduced automatically into the graphite furnace, in which all measurements were carried out in triplicate.

A2780 tumor spheroids = experiment: 3D tumor spheroids; format: cell-based, human
Description: In this experiment, the spheroids were monitored for 144 h after treatment with 1 at several concentrations (0.78–12.5 μM). […] As observed, at this concentration there is a decrease in the diameter, followed by stabilization, after treatment for 48 h. […] These findings underscore the necessity to refine in vitro methodologies to better elucidate the potential of novel compounds. Such improvements are crucial for increasing the likelihood of identifying critical insights early in the drug discovery and development process, thereby minimizing errors in subsequent stages. After treatment for 144 h, double staining with both DAPI and PI was performed.
In a 96-well Bioprint Kit [Magnetic 3D Cell Culture Technology (m3D)], the 3D culture experiment was carried out. Initially, to the A2780 cells was added 150 μL of a solution containing nanoparticles (NanoShuttle - PL). The A2780 cells were added to a 96-well repellent culture plate after 24 h. The resulting 1500 cells/well were placed under magnetic drives to form spheroids through the magnetic forces of the magnets. […] The formation of spheroids and their growth were monitored by a Digital Imaging System microscope (CELENA S, Logos Biosystems). Once the spheroids were formed, complex 1 at different concentrations (0.78, 1.56, 3.12, 6.25, and 12.5 μM) was added, and the effect of the compound on the spheroids was monitored for 144 h. […]

[6] = system: A2780 ovarian cancer cells; experiment: Morphological assay (bright field, PI, DAPI/Green Plasma); format: cell-based, human; details: for DAPI and Green Plasma staining / propidium iodide fluorescence intensity: 48 h, 0.5 × IC50, IC50, 2 × IC50; for cell morphology: up to 48 h, mainly at higher concentrations
Description: For morphological analysis, A2780 cancer cells (0.3 × 10^5 cells/well) were added to a 12-well plate in RPMI medium. After 24 h, different concentrations of complexes 1 and 2 were introduced into the cells. Possible morphological changes were evaluated at 0 and 48 h using an inverted optical microscope (NIKON ECLIPSE TS100) coupled with a Motcam 1SP camera, with a 10× objective lens.
Additionally, 1.5 × 10^4 A2780 cells/well were plated in 96-well plates in RPMI medium for the fluorescence morphology experiments. After treatment for 48 h, 100 μL (1 μg mL^–1) of the fluorescent marker PI ([…]) was added. For the morphological assessment using the fluorescent markers DAPI (4′,6-diamidino-2-phenylindole dilactate) and Green Plasma (CellMask), the cells were fixed in methanol and 80 μL (1 μg mL^–1) portions of the markers were added. Images were taken using a CELENA microscope (Logos Biosystems).

A2780 cancer cells = experiment: Clonogenic survival assay; format: cell-based, human; details: 0.5 × IC50, 48 h treatment then 7 days
Description: The A2780 cancer cells were used for the clonogenic assay, in which a total of 400 cells/well were seeded in a six-well plate in RPMI medium, and after incubation for 24 h, different concentrations of complexes 1 and 2 were added. The plates containing the complexes were incubated (37 °C and 5% of CO2) for 48 h. The culture medium was replaced with fresh medium, and the system was incubated again for 7 days under the same condition. Thereafter, all culture media were removed from the plate, and the cells were washed with PBS and fixed with a 3:1 methanol/acetic acid mixture. Then the cells were colored with a 0.5% crystal violet solution in water for 30 min. Images were taken, and the colonies counted using ImageJ. The experiment was also carried out in triplicate.

Row | Structure (SMILES) | IC50 ([1]; Homo sapiens, MDA-MB-231, 48 h) | IC50 ([2]; Homo sapiens, A2780cis, 48 h) | IC50 (A549 (lung) cancer cells; Homo sapiens, A549, 48 h) | IC50 ([3]; Homo sapiens, A2780, 48 h) | IC50 ([1]; MTT, 48 h treatment) | IC50 ([2]; MTT, 48 h treatment) | IC50 [5] | IC50 (A549 (lung) cancer cells; MTT, 48 h treatment) | IC50 ([3]; MTT, 48 h treatment) | other results
1 | O=C(O)c1ccccc1Nc1cccc(C(F)(F)F)c1 [HMFFe, flufenamic acid] | > 100 µM | > 100 µM | > 100 µM | > 100 µM |  |  |  |  |  | IC50 at 48 h (in vitro): > 100 µM
2 | O=C(O)c1ccccc1Nc1ccccc1 [HFe, fenamic acid] | > 100 µM | > 100 µM | > 100 µM | > 100 µM |  |  |  |  |  | IC50 at 48 h [4]: > 100 µM
3 | FC(F)(F)c1cccc(Nc2ccccc2C2=[O+][Ru-4]34([O]2)([n+]2ccccc2-c2cccc[n+]23)[P+](c2ccccc2)(c2ccccc2)CCC[P+]4(c2ccccc2)c2ccccc2)c1.F[P-](F)(F)(F)(F)F [complex 4, [Ru(FFen)(bipy)(dppp)]PF6] |  |  |  |  | 2.34 ± 0.14 µM | 4.25 ± 0.11 µM | 4.36 ± 0.19 µM | 6.87 ± 0.35 µM | 2.14 ± 0.11 µM | 
4 | [Cl][Ru-4]12([Cl])([n+]3ccccc3-c3cccc[n+]31)[P+](c1ccccc1)(c1ccccc1)CCC[P+]2(c1ccccc1)c1ccccc1 [[RuCl2(bipy)(dppp)], cis-[RuCl2(bipy)(dppp)]] |  |  |  |  | 26.1 ± 4.84 µM | 35.6 ± 1.7 µM | 40.9 ± 1.76 µM | > 50 µM | 28 ± 0.81 µM | stability in DMSO (Stability by 31P{1H} NMR): new signals are observed at ∼40 ppm; stability in DMSO/DMEM solution (Stability by 31P{1H} NMR): two other doublets with chemical shifts at ∼33 and ∼46 ppm
5 | c1ccc(P(CCCP(c2ccccc2)c2ccccc2)c2ccccc2)cc1 [Dppp, 1,3-bis(diphenylphosphino)propane] | > 100 µM | > 100 µM | > 100 µM | > 100 µM |  |  |  |  |  | IC50 at 48 h (in vitro): > 100 µM
6 | Cc1cccc(Nc2ccccc2C(=O)O)c1C [HMFe, mefenamic acid] | > 100 µM | > 100 µM | > 100 µM | > 100 µM |  |  |  |  |  | IC50 at 48 h [4]: > 100 µM
7 | Cc1c(Cl)cccc1Nc1ccccc1C1=[O+][Ru-4]23([O]1)([n+]1ccccc1-c1cccc[n+]12)[P+](c1ccccc1)(c1ccccc1)CCC[P+]3(c1ccccc1)c1ccccc1.F[P-](F)(F)(F)(F)F [complex 3, [Ru(TFen)(bipy)(dppp)]PF6] |  |  |  |  | 3.71 ± 0.15 µM | 2.68 ± 0.26 µM | 3.58 ± 0.02 µM | 8.74 ± 0.23 µM | 2.25 ± 0.08 µM | 
8 | F[P-](F)(F)(F)(F)F.c1ccc(Nc2ccccc2C2=[O+][Ru-4]34([O]2)([n+]2ccccc2-c2cccc[n+]23)[P+](c2ccccc2)(c2ccccc2)CCC[P+]4(c2ccccc2)c2ccccc2)cc1 [complex 1, [Ru(Fen)(bipy)(dppp)]PF6] |  |  |  |  | 2.87 ± 0.11 µM | 0.96 ± 0.04 µM | 2.47 ± 0.18 µM | 3.96 ± 0.4 µM | 0.66 ± 0.04 µM | Ru uptake percentage (A2780 cells): 3,6%; amount of ruthenium internalized by A2780 cells (A2780 cells): 20,8 ± 3,2 ng; concentration at which spheroid growth (diameter) was significantly compromised (A2780 tumor spheroids; 0.78–12.5 μM tested, monitored 144 h): 12.5 µM; PI fluorescence in spheroids (A2780 tumor spheroids; DAPI/PI double staining after 144 h): increase in the fluorescence intensity of the PI marker; DAPI and Green Plasma staining [6]: significant shortening of the plasma membrane, while the nucleus remained intact; propidium iodide fluorescence intensity [6]: significant increase in fluorescence intensity; cell morphology [6]: loss of adhesion and round cells are observed; effect on colony formation (A2780 cancer cells): significantly reduced both the number and size of colonies
9 | c1ccc(-c2ccccn2)nc1 [Bipy, 2,2′-bipyridine] | > 100 µM | > 100 µM | > 100 µM | > 100 µM |  |  |  |  |  | IC50 at 48 h ([4]; MRC-5 normal lung cells): > 100 µM
10 | Cc1cccc(Nc2ccccc2C2=[O+][Ru-4]34([O]2)([n+]2ccccc2-c2cccc[n+]23)[P+](c2ccccc2)(c2ccccc2)CCC[P+]4(c2ccccc2)c2ccccc2)c1C.F[P-](F)(F)(F)(F)F [complex 2, [Ru(MFen)(bipy)(dppp)]PF6] |  |  |  |  | 3.99 ± 0.21 µM | 1.11 ± 0.06 µM | 2.33 ± 0.04 µM | 4.57 ± 0.08 µM | 0.91 ± 0.06 µM | Ru uptake percentage (A2780 cells): 4,5%; amount of ruthenium internalized by A2780 cells (A2780 cells): 26,0 ± 1,9 ng; DAPI and Green Plasma staining [6]: significant shortening of the plasma membrane, while the nucleus remained intact; propidium iodide fluorescence intensity [6]: significant increase in fluorescence intensity; cell morphology [6]: loss of adhesion and round cells are observed; effect on colony formation (A2780 cancer cells): significantly reduced both the number and size of colonies
11 | Cc1c(Cl)cccc1Nc1ccccc1C(=O)O [HMTFe, tolfenamic acid] | > 100 µM | > 100 µM | > 100 µM | > 100 µM |  |  |  |  |  | IC50 at 48 h [4]: > 100 µM
